Calls of active or inactive are those of the source.
What was measured:
[1] = inhibitors of firefly luciferase expression or activity, dose response, H4 neuroglioma cells, luminescence (AID 1990); format: functional, cell-based
[2] = luciferase reporter signal reduction – luminescence, H4-C neuroglioblastoma cells, dose response (AID 2458); format: functional, cell-based;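 note: H4 neuroglioblastoma cells stably carrying a luciferase reporter gene fusion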
cells = format: functional, cell-based
[3] = Luminescence Cell-Based Dose Response HTS to Identify Inhibitors of 5'UTR Stem-Loop Driven Prion Protein mRNA Translation in H4 Neuroglioblastoma Cells. [Related pubchem assays: 1827 (Project Summary), 1813 (Primary HTS)]; format: functional
[4] = inhibitors of SNCA 5'UTR-driven reporter translation, confirmation, H4 neuroglioma cells, luminescence (AID 1988); format: functional, cell-based
[5] = inhibitors of SNCA 5'UTR-driven translation, confirmation, luminescence, H4 neuroglioblastoma cells, dose confirmation (AID 2454); format: functional, cell-based;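 note: H4 neuroglioblastoma cells carrying an alpha-synuclein 5'UTR luciferase reporter; potency for inhibition of the luciferase signal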
[6] = target: Eukaryotic translation initiation factor 4H (Homo sapiens, UniProt Q15056); test: eIF4H inhibition in translation initiation, SAR follow-up (AID 435011); format: functional
[7] = cytotoxicity in HEK-293T cells, dose response, cytotoxicity control for TCR NF-kB inhibitor project, luminescence, T-cell screen hits (AID 489026); format: functional, cell-based;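 note: cells exposed to compound about 14 hours before the viability readout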
[8] = target: T1, Mannose-6-phosphate isomerase (Homo sapiens, UniProt P34949); test: PMI enzyme inhibitors, confirmation, biochemical, fluorescence intensity (AID 1535)
T1 sequence (P34949 whole entry): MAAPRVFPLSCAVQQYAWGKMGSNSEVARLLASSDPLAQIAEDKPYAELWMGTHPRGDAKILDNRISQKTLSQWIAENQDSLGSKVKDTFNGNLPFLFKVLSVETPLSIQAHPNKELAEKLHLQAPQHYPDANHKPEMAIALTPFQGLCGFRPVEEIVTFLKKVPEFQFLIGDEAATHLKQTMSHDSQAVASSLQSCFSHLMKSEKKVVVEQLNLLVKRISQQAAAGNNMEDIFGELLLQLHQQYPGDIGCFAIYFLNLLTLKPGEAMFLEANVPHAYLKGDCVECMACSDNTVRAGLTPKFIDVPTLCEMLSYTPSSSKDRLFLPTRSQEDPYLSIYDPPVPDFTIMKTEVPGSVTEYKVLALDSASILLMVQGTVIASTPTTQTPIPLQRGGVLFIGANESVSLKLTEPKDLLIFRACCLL

Phosphomannomutase 2 = Phosphomannomutase 2 (Homo sapiens, UniProt O15305); test: Counter screen SAR assay for PMM2 inhibitors via a fluorescence intensity assay. [Related pubchem assays (depositor defined):AID1545, AID1574]
[9] = target: Voltage-dependent T-type calcium channel subunit alpha-1H (Homo sapiens, UniProt O95180); test: Cav3.2 T-type channel inhibitors, cell-based, synthetic library set 1, calcium flux (AID 493022); format: functional
[10] = target: Glyceraldehyde-3-phosphate dehydrogenase (Homo sapiens, UniProt P04406)
[11] = target: Tyrosine-protein phosphatase non-receptor type 12 (Homo sapiens, UniProt Q05209); test: SAR Selectivity Analysis of small molecule inhibitors of PEST using pCAP in a fluorescence assay. [Related pubchem assays (depositor defined):AID1779, AID1784, AID2135]; format: functional
[12] = target: T2, Tyrosine-protein phosphatase non-receptor type 22 (Homo sapiens, UniProt Q9Y2R2); test: SAR LYP1 Fluorescent Assay using OMFP substrate for In Vitro dose response studies - Set 3. [Related pubchem assays (depositor defined):AID1779, AID1784, AID2140, AID2686]; format: functional
[13] = target: T2, Tyrosine-protein phosphatase non-receptor type 22; test: LYP (PTPN22) phosphatase inhibitor potency, SAR follow-up, biochemical, pCAP fluorogenic substrate, fluorescence, set 3 (AID 449727); format: functional
[14] = target: Alkaline phosphatase, placental type (Homo sapiens, UniProt P05187); test: PLAP enzyme inhibitors, confirmation, biochemical, luminescence (AID 1512); format: functional
[15] = target: T3, Alkaline phosphatase, tissue-nonspecific isozyme (Homo sapiens, UniProt P05186); test: human TNAP enzyme inhibitors, SAR follow-up, biochemical, luminescent, dose response (AID 1056)
T3 sequence (P05186 whole entry): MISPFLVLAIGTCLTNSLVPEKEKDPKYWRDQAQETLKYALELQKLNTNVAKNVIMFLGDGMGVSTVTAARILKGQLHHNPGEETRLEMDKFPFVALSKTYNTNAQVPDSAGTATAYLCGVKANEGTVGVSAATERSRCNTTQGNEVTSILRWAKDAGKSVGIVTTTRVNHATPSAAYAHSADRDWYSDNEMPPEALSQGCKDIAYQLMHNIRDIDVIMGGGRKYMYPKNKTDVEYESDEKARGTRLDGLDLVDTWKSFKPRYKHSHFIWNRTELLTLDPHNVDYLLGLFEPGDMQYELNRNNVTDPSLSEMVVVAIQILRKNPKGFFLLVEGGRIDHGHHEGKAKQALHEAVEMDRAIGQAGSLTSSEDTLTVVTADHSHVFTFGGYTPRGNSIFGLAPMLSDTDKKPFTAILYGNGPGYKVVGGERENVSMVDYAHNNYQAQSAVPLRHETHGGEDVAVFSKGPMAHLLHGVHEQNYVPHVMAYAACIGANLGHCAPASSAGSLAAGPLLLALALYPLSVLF

[16] = HEp-2 cell cytotoxicity, dose response, cytotoxicity control for RSV inhibitor project, HTS (AID 2410); format: functional; conditions: human respiratory syncytial virus
[17] = test system: Streptococcus sp. 'group A'; test: growth inhibition of control SK(-) GAS strain, dose response, counter-screen for streptokinase expression inhibitor project, luminescence, kanamycin, BacTiterGlo, confirmation (AID 1900); format: functional, organism-based
Streptokinase A = target: T4, Streptokinase A (Streptococcus pyogenes serotype M1, UniProt P10520); test: S. pyogenes streptokinase expression inhibitors, potency, dose response, plasminogen activation absorbance, OD405 (AID 1914); format: functional, Streptococcus pyogenes M1 GAS;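 note: secreted streptokinase activity via plasminogen activation per viability signal from cell pellet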
T4 sequence (P10520 whole entry): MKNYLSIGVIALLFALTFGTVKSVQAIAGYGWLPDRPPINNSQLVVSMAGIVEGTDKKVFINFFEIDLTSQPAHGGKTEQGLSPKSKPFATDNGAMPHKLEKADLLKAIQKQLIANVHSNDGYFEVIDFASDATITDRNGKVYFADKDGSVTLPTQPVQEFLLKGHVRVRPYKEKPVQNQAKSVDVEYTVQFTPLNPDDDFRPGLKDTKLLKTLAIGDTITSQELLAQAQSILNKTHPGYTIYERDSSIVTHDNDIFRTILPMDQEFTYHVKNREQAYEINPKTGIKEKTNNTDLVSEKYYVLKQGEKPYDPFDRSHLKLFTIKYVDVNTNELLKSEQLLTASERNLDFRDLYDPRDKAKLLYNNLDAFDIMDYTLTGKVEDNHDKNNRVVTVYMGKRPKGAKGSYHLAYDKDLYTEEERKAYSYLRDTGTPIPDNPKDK

[18] = target: G-protein coupled receptor 55 (Homo sapiens, UniProt Q9Y2T6); test: GPR55 antagonists blocking LPI-driven arrestin recruitment, primary screen, imaging, U2OS, beta-arrestin-GFP, LPI agonist (AID 2013); format: functional;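 note: antagonist potency measured as reduced agonist-driven arrestin aggregation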
Streptococcus = test: Group A Streptococcus viability loss, dose response, counter-screen for streptokinase expression inhibitor project, luminescence, BacTiterGlo (AID 1915); format: functional, organism-based;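 note: potency for reduction of bacterial viability or growth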
[19] = target: T5, Replicative DNA helicase DnaB (Mycobacterium tuberculosis, UniProt P9WMR3); test: DnaB intein splicing inhibitors, dose response, biochemical, cell-free fluorescence (AID 449749); format: functional
T5 sequence (P9WMR3 whole entry): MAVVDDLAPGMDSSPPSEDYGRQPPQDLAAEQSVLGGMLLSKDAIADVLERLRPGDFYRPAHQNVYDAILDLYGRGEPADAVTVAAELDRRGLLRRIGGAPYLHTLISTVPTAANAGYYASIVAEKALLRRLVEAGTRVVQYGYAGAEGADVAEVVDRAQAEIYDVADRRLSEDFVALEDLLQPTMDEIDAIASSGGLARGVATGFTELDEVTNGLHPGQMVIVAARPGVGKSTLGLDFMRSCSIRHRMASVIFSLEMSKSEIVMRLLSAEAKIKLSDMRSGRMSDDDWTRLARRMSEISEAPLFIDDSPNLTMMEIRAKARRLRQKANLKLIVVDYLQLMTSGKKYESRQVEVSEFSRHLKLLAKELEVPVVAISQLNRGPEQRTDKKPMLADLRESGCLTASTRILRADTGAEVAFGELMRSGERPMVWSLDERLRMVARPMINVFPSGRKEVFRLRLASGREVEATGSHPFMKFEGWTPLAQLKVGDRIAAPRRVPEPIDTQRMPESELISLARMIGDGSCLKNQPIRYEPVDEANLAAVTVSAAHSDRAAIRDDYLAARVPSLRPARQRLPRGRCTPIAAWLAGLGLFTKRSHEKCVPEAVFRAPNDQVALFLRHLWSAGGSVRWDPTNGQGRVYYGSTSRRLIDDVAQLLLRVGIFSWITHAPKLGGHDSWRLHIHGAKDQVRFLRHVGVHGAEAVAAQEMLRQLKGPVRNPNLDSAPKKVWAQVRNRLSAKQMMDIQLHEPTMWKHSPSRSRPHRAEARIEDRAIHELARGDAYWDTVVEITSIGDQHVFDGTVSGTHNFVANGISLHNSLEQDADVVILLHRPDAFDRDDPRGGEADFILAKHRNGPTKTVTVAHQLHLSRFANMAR

Protein RecA = target: T6, Protein RecA (Mycobacterium tuberculosis, UniProt P9WHJ3); test: Fluorescence Cell-Free Homogeneous Dose Retest to Identify Inhibitors of RecA-Intein Splicing Activity. [Related pubchem assays (depositor defined):AID2097, AID2223, AID489010, AID492950]; format: functional
T6 sequence (P9WHJ3 whole entry): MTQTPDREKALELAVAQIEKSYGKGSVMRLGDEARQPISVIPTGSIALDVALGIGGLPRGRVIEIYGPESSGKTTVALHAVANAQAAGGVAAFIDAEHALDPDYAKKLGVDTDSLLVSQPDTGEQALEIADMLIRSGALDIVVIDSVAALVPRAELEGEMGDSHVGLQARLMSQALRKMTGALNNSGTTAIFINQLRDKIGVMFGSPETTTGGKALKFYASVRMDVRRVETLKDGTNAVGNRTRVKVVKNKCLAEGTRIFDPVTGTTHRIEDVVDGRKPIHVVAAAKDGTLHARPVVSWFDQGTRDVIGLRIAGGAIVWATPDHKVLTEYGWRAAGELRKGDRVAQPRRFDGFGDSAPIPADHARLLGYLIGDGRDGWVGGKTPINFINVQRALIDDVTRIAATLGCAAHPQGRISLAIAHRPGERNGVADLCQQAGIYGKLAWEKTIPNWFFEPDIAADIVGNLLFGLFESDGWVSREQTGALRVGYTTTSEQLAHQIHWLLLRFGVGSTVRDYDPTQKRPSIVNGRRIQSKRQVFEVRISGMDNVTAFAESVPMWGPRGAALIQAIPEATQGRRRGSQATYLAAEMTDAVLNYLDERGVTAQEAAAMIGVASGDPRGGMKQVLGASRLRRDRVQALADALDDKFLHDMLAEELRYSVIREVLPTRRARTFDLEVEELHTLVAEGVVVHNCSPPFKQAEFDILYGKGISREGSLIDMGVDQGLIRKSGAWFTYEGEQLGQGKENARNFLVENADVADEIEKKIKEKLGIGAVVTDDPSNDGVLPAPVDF

[20] = target: Intestinal-type alkaline phosphatase (Homo sapiens, UniProt P09923); test: Dose Response confirmation of uHTS hits from a small molecule inhibitors of human intestinal alkaline phosphatase via a luminescent assay. [Related pubchem assays (depositor defined):AID2544, AID2574]; format: functional
H9c2 = test: cells; format: functional, cell-based; conditions: Rattus norvegicus, H9c2, Myocardium
Hexokinase = Hexokinase (Trypanosoma brucei, UniProt Q38C41); test: Confirmation assay for inhibitors of Trypanosoma brucei hexokinase 1-Analogue-first series. [Related pubchem assays (depositor defined):AID1430, AID1632, AID2516, AID2560, AID2579, AID2600, AID449725, AID492951]; format: functional
[21] = target: Glucose-6-phosphate 1-dehydrogenase (Homo sapiens, UniProt P11413); test: human G6PD enzyme inhibitors, dose response, selectivity assay for P. falciparum G6PD inhibitor project, biochemical, fluorescence (AID 504792); format: functional
[22] = Fluorescence-based cell-based high throughput dose response assay for inhibitors of the interaction of nucleotide-binding oligomerization domain containing 2 (NOD2) and the receptor-interacting serine-threonine kinase 2 (RIPK2).; format: functional; conditions: Homo sapiens

T2 sequence (Q9Y2R2 whole entry): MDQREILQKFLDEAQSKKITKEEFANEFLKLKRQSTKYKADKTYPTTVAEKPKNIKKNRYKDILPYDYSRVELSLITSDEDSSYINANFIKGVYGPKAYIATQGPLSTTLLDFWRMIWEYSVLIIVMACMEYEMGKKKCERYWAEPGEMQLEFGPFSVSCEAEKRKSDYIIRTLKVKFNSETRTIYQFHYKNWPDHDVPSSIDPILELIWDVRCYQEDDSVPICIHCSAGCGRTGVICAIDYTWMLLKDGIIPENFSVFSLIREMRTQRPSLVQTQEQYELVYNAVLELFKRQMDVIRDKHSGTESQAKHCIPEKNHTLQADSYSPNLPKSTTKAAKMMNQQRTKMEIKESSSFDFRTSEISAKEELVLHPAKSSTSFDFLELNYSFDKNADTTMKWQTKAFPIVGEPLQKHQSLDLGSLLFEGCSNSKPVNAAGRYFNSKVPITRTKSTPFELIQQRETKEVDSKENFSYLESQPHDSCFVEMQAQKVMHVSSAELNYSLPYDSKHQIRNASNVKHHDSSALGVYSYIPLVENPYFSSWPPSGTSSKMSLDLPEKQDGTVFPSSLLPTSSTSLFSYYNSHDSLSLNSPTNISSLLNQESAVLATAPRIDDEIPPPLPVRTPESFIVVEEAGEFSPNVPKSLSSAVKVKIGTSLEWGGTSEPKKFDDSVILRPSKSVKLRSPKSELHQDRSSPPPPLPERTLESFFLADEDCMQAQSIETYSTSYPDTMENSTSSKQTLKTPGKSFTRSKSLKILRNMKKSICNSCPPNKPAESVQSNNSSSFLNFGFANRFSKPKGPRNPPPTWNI
Sequence of Phosphomannomutase 2 (O15305 whole entry): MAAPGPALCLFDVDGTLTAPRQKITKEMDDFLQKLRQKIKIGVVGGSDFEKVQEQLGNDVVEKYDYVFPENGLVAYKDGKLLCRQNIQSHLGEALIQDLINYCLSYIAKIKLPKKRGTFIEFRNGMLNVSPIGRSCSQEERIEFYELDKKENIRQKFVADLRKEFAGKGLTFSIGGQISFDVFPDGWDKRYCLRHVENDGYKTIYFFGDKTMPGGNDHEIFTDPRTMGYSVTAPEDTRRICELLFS
Sequence of Glyceraldehyde-3-phosphate dehydrogenase (P04406 whole entry): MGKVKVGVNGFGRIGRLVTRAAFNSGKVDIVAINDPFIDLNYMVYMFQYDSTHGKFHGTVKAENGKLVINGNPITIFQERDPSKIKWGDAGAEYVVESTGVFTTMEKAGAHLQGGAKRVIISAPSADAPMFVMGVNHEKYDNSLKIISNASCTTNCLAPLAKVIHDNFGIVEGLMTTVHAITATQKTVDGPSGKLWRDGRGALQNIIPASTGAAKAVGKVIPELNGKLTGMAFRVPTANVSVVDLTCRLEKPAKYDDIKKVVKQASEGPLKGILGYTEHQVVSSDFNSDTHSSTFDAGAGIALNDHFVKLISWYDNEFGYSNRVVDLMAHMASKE
Sequence of Voltage-dependent T-type calcium channel subunit alpha-1H (O95180 whole entry): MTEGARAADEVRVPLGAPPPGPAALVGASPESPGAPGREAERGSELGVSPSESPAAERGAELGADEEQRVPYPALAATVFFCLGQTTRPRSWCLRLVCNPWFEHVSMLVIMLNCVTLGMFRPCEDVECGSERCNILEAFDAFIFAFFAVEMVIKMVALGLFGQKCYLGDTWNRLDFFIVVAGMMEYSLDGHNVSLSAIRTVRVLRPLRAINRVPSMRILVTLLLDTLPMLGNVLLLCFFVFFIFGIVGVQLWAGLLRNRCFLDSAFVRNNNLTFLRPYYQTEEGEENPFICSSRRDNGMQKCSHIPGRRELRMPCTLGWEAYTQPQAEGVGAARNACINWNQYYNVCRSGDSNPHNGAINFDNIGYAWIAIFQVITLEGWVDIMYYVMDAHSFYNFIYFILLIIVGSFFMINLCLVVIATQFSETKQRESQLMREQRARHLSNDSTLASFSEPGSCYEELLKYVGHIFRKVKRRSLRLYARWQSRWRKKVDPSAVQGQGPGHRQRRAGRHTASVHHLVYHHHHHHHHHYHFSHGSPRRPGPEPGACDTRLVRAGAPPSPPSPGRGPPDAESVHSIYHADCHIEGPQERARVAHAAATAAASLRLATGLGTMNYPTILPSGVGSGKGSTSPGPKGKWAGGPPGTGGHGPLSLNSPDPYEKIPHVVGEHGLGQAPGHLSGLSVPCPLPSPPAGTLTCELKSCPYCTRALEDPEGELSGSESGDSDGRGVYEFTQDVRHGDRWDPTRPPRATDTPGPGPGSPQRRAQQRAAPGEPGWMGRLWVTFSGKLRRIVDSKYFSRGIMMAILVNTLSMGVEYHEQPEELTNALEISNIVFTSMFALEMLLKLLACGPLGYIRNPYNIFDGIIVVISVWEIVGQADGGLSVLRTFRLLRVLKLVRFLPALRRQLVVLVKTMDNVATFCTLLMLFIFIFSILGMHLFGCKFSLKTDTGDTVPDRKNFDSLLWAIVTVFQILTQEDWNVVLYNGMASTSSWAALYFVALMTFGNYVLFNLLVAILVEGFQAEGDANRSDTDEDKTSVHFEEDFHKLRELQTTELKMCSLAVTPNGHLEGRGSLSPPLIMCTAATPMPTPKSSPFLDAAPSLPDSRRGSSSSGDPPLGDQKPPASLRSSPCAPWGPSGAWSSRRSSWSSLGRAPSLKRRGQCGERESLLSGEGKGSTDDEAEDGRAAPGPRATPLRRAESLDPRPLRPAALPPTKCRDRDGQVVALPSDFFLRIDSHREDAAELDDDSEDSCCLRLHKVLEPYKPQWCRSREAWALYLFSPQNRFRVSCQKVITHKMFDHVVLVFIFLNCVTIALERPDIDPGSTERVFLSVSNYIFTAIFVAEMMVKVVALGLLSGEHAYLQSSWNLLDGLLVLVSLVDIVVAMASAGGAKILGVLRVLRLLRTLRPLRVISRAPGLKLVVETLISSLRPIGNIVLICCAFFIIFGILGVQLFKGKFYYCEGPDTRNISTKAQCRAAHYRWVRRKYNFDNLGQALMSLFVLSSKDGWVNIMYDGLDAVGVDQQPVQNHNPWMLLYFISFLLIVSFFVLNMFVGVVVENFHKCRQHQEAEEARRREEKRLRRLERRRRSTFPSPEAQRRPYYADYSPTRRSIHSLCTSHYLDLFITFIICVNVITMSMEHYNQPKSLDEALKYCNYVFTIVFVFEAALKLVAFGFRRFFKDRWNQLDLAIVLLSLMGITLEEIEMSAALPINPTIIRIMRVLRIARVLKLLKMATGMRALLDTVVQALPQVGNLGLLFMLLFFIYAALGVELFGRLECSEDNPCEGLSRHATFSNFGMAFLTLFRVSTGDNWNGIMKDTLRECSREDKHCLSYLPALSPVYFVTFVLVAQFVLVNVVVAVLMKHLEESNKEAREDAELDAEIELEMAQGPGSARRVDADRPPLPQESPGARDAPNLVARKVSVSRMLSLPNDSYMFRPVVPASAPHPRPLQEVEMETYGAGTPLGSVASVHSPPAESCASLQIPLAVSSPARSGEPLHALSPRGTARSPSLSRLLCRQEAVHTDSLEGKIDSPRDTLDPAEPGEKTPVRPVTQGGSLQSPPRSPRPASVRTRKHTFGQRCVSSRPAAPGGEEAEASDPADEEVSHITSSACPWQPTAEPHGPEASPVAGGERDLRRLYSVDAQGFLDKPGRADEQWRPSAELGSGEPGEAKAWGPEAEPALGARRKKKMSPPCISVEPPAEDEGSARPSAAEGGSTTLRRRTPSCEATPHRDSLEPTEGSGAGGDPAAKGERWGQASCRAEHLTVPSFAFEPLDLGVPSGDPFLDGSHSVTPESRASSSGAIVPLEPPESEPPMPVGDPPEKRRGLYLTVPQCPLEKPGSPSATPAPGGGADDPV
Sequence of Alkaline phosphatase, placental type (P05187 whole entry): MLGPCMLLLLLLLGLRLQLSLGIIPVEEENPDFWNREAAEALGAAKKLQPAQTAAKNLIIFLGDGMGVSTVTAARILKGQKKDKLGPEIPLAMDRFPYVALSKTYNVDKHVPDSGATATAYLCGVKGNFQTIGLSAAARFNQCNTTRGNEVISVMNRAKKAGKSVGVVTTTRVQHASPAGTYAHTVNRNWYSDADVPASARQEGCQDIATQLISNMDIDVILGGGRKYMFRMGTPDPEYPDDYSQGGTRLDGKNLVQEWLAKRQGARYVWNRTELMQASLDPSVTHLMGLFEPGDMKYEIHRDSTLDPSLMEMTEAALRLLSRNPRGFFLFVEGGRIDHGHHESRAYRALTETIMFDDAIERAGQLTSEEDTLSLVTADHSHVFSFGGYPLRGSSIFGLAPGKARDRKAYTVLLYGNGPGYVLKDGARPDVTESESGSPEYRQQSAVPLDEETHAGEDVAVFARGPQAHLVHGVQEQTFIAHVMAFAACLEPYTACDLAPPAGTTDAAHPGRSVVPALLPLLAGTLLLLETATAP
Sequence of G-protein coupled receptor 55 (Q9Y2T6 whole entry): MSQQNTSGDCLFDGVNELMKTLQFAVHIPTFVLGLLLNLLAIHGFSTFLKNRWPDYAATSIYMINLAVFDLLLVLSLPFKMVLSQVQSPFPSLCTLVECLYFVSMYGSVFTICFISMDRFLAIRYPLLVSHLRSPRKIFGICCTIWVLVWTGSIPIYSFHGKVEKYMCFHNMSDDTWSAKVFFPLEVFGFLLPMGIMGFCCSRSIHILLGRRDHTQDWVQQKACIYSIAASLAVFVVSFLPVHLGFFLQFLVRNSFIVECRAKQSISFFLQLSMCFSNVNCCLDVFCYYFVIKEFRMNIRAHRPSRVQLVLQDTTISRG
Sequence of Hexokinase (Q38C41 whole entry): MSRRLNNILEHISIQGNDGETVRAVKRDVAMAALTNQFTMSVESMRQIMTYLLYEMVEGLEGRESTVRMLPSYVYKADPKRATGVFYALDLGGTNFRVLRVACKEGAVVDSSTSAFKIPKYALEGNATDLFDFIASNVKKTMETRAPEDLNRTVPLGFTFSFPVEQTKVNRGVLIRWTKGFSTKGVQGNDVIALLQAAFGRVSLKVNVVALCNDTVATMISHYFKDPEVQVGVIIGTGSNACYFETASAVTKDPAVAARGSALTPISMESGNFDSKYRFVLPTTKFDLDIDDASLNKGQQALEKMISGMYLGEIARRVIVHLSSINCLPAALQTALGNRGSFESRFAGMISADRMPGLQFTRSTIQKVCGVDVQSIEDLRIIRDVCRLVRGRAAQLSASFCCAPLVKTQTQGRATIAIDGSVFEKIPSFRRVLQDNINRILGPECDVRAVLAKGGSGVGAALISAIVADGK

## Cc1ccc(N2C(=O)c3cccc4c(N)ccc(c34)C2=O)c2cccnc12
[1]
  EC50: < 100 nM (active)
[2]
  EC50: 111 nM (active)
cells
  EC50: 101 nM (active)
[3]
  EC50: < 100 nM (active)
[4]
  EC50: < 100 nM (active)
[5]
  EC50: 124 nM (active)
[6]
  IC50: > 100 µM (inactive)
[7]
  IC50: > 80 µM (inactive)

## Clc1nss/c1=N\C1CCC1
[8]
  IC50: 15.6 µM (active)
Phosphomannomutase 2
  IC50: 76.3 µM (active)

## O=C(COc1ccc(F)cc1Cl)Nc1nnc(-c2ccc3c(c2)CCCC3)o1
[9]
  EC50: 10 µM (active)

## COc1cc(/C=C2\SC(N(C)c3ccc(O)cc3)=NC2=O)ccc1OCC(=O)O
[10]
  IC50: > 100 µM (not active)
[11]
  IC50: > 100 µM (inactive)
[12]
  IC50: > 100 µM (inactive)
[13]
  IC50: > 100 µM (inactive)

## O=c1c2[nH]c3ccc(F)cc3c2ncn1CCc1ccc(O)c(O)c1
[14]
  IC50: 1.04 µM (active)
[15]
  IC50: 253 nM (active)

## c1ccc(-c2nc(N3CCCCCC3)nc(-n3ccnc3)n2)cc1
[16]
  CC50: 20.1 µM (active)
[17]
  EC50: 4.08 µM (active)
Streptokinase A
  EC50: > 150 µM (not active)
[18]
  IC50: 3.77 µM (active)
Streptococcus
  EC50: 7.9 µM (active)
[19]
  AC50: 63.8 µM (active)
Protein RecA
  EC50: > 380 µM (inactive)

## CC(=O)CCc1ccc(Oc2nc(-c3cccnc3)nc3ccccc23)cc1
[20]
  IC50: > 100 µM (inactive)
H9c2
  IC50: > 79 µM (inactive)

## O=C(Cn1sc2ccccc2c1=O)Nc1ccc(Br)cc1
Hexokinase
  IC50: > 25 µM (inactive)
[21]
  IC50: 24.2 µM (inactive)
[22]
  IC50: 10.2 µM (inactive)
